Results reported in patent US20010014462A1, “Direct cholesterol esterase assay” (priority 1997, published 2001).
Like-named read-outs stand apart in the source and are kept apart here.

Legend:
[1] = system: esterase (EC 3.1.1.1); assay: Microtitre chromogenic detection of esterase, de-ionized H2O (Examples 2 and 3); type: biochemical; details: for Substrate preference / Speed of chromogenic reactions relative to other BCI substrates: esterase; for Substrate preference: BCI-substrates tested; for Speed of chromogenic reactions relative to other BCI substrates: similar concentration of substrates and enzymes; for Reaction (colour, time to detection): 1 unit esterase, de-ionized H2O
Protocol: 10 μl of esterase (1 unit) was added to substrate samples B, B′, C, C′, D, D′, and E, E′.
Five test samples were prepared.

[2] = system: cholesterol esterase (EC3.1.1.13); assay: Microtiter chromogenic detection of cholesterol esterase (Example 7); type: biochemical; details: for Substrate preference: BCI-substrates tested; for Reaction (colour, time to detection): cholesterol esterase (0.05 U)
[3] = system: beta-glucosidase (EC 3.2.1.21); details: 0.5 units glucosidase
Protocol: The experimental results for Experiments 1-12 are described by the color change of the experimental solution. These colors result from the interaction of the enzyme and substrate with the transfer of an electron to a tetrazolium salt. The reactive product, formazan, is detected as dark blue, black. […] The reaction detected required the enzyme, substrate and tetrazolium salt.
Five test samples were prepared. The samples A, B, C, D, E contained the following reactants:
10 μl of H2O was added to substrate sample A to serve as a control. 10 μl of β-glucosidase (0.5 units) was added to substrate samples B, C, D and E.

[4] = system: B-glucuronidase (EC 3.2.1.31); details: PBS pH 5.0
Protocol: (§3) These colors result from the interaction of the enzyme and substrate with the transfer of an electron to a tetrazolium salt. The reactive product, formazan, is detected as dark blue, black. The BCI substrate without MTT is pale blue. PMS and MTT alone are yellow. PMS and BCI is yellow+blue which is green.
Four test samples were prepared. The samples A, B, C, D contained the following reactants:
10 μl of H2O was added to substrate sample A to serve as a control. 10 μl of β-glucuronidase (10 units) was added to substrate samples B, C, and D.

[5] = system: esterase (EC3.1.1.1); assay: Microtiter chromogenic detection of esterase, PBS pH 7.4 (Example 1); type: biochemical; details: 1 unit esterase, visual
Protocol: (§1) The BCI substrate without MTT is pale blue. PMS and MTT alone are yellow. PMS and BCI is yellow+blue which is green.
Four test samples were prepared.

[6] = system: esterase activity in elastase preparation; assay: Esterase activity and/or contamination in commercial elastase preparation (Example 5); type: biochemical
Protocol: (§2) Elastase was serially diluted twofold to signal extinction with elastase substrate. The last dilution yielding robust signal was incubated with the competitive inhibitor elastatinal for 10 minutes—with subsequent addition of esterase substrates.

[7] = system: Beta-N-acetylglucosaminidase (EC 3.2.1.30); assay: Microtitre chromogenic detection of Beta-N-acetylglucosaminidase (Example 12); type: biochemical; details: Beta-N-acetylglucoaminidase 0.125 units
Source text: as §1

[8] = system: neuraminidase (EC 3.2.1.18); assay: Microtitre chromogenic detection of neuraminidase (Example 11); type: biochemical; details: neuraminidase 0.1 units
Protocol: as §3
10 μl of H2O was added to substrate sample A as the substrate control. 10 μl of neuraminidase (0.1 units) was added to substrate samples B, C, D and E.

[9] = biological target: chloramphenicol acetyltransferase (EC 2.3.1.28) (Escherichia coli, UniProt P62577); assay: Microtitre chromogenic detection of chloramphenicol acetyltransferase (Example 10); type: biochemical; details: Chloramphenicol acetyl transferase 5U/10 μl
Sequence of chloramphenicol acetyltransferase (EC 2.3.1.28) (P62577 whole entry, looked up): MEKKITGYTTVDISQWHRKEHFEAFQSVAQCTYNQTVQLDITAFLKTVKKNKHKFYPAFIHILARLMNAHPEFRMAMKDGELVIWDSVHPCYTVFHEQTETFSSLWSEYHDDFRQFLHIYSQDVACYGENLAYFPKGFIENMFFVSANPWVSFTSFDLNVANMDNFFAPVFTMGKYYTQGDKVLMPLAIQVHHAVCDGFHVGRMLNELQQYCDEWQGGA
Source text: In a preferred assay of the invention, the enzyme chloramphenicol acetyl transferase (CAT enzyme) reacts with chloramphenicol and […] in the presence of the indicator dimethylthiazol tetrazolium (MTT) and phenazine methosulfate (PMS). The MTT serves as a hydrogen acceptor in the reaction. The reaction can be written as:
CAT+chloramphenicol+acyl coA→CAT-chloramphenicol-CoA CAT-chloramphenicol-CoA+PMS→CAT+PMS.H2+acyl-chloramphenicol+HS-CoA PMS-H2+MTT→formazan+PMS.
as §1
Chloramphenicol acetyl transferase (5U/10 μl) was added to each substrate combination.

[10] = biological target: T1, elastase (EC 3.4.21.36) (Sus scrofa, UniProt P00772); assay: Elastase with elastase substrate, with or without elastatinal (Example 5); type: biochemical
T1 construct: purchased Sigma lot # 17H8005
T1 sequence (P00772 27-266): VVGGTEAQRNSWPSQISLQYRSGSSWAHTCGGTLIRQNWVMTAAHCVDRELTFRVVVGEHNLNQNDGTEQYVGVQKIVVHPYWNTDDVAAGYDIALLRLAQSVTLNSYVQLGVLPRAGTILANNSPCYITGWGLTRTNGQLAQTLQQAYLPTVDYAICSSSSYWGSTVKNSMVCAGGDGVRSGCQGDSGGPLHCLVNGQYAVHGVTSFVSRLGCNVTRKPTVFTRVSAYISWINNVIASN
Protocol: as §2

[11] = system: cholesterol oxidase (EC1.1.3.6); assay: Microtitre chromogenic detection of cholesterol oxidase (Example 8); type: biochemical; details: Cholesterol Oxidase 25 U/ml
Source text: as §1

[12] = substrate 5 mg/ml + H2O, PMS (no MTT)
[13] = substrate 5 mg/ml + MTT, H2O (no PMS)
[14] = substrate 5 mg/ml alone (no MTT, no PMS)
[15] = substrate 12.5 mg/ml + H2O, PMS (no MTT)
[16] = substrate 12.5 mg/ml + MTT, H2O (no PMS)
[17] = substrate 12.5 mg/ml + MTT, PMS
[18] = substrate alone (no MTT, no PMS)

Molecule: 5-Bromo-4-chloro-3-indolyl 1,3 diacetate [BCI-1,3 diacetate]
- Substrate preference [1]: BCI-acetate>BCI-butyrate> BCI-1,3 diacetate
- Speed of chromogenic reactions relative to other BCI substrates [1]: much slower than the corresponding BCI-acetate and slower than the BCI-butyrate reactions
- Reaction (colour, time to detection) [1, 12]: yellow-blue
- Reaction (colour, time to detection) [1, 13]: dark blue (>1 hour)
- Reaction (colour, time to detection) ([1]; substrate 5 mg/ml + MTT, PMS): dark blue (>40 minutes)
- Reaction (colour, time to detection) [1, 14]: pale faint blue
- Substrate preference ([2]; cholesterol esterase): BCI-acetate>BCI-butyrate> BCI-1,3 diacetate

Molecule: 5-Bromo-4-chloro-3-indolyl-B-D-glucoside [BCI-glucoside]
- Reaction (colour, time to detection) [3, 12]: yellow-blue - slight change
- Reaction (colour, time to detection) [3, 13]: dark blue (<5 minutes)
- Reaction (colour, time to detection) ([3]; substrate 5 mg/ml + MTT, PMS): dark blue (<5 minutes)
- Reaction (colour, time to detection) [3, 14]: pale blue (>10 minutes)

Molecule: 5-Bromo-4-chloro-3-indolyl-B-D-glucuronide [BCI glucuronide]
- Reaction (colour, time to detection) ([4]; substrate 10 mg/ml + MTT, H2O (no PMS), 10 units glucuronidase): dark blue (<5 minutes)
- Reaction (colour, time to detection) ([4]; substrate + H2O (no MTT, no PMS), glucuronidase): pale blue (after 5 minutes)
- Reaction (colour, time to detection) ([4]; substrate + H2O, PMS (no MTT), 10 units glucuronidase): yellow-blue - slight change
- Reaction (colour, time to detection) ([4]; substrate + MTT, PMS, 10 units glucuronidase): dark blue (<5 minutes)

Molecule: CC(=O)Oc1c[nH]c2ccc(Br)c(Cl)c12 [BCI-acetate, 5-Bromo-4-chloro-3-indolyl acetate]
- Reaction (colour, time to detection) [5, 15]: yellow-blue - slight change
- Reaction (colour, time to detection) [5, 16]: dark blue < 10 seconds)
- Reaction (colour, time to detection) [5, 17]: dark blue (instantaneous)
- Substrate preference [1]: BCI-acetate>BCI-butyrate> BCI-1,3 diacetate
- Reaction (colour, time to detection) [1, 12]: yellow-blue (<30 sec)
- Reaction (colour, time to detection) [1, 13]: dark blue (<10 sec)
- Reaction (colour, time to detection) ([1]; substrate 5 mg/ml + MTT, PMS): dark blue (instant detection)
- Reaction (colour, time to detection) [1, 14]: pale blue (>10 minutes)
- Reaction with elastase preparation, no inhibitor ([6]; Elastase + H2O, MTT, PMS, BCI-acetate): dark blue (<5 minutes)
- Substrate preference ([2]; cholesterol esterase): BCI-acetate>BCI-butyrate> BCI-1,3 diacetate
- Reaction (colour, time to detection) ([2]; substrate + H2O, PMS (no MTT)): yellow-blue (<30 see)
- Reaction (colour, time to detection) ([2]; substrate + MTT, H2O (no PMS)): dark blue (<10 sec)
- Reaction (colour, time to detection) ([2]; substrate + MTT, PMS): dark blue (instant detection)
- Reaction (colour, time to detection) [2, 18]: pale blue (>10 minutes)

Molecule: CC(=O)N[C@H]1[C@H](Oc2c[nH]c3ccc(Br)c(Cl)c23)O[C@H](CO)[C@@H](O)[C@@H]1O [BCI-acetylglucosaminide]
- Reaction (colour, time to detection) [7, 15]: green
- Reaction (colour, time to detection) [7, 16]: light blue formazan reaction
- Reaction (colour, time to detection) [7, 17]: dark blue(<2 minutes)
- Reaction (colour, time to detection) ([7]; substrate 12.5 mg/ml alone (no MTT, no PMS)): light blue (>5 minutes)

Molecule: CC(=O)N[C@H]1[C@H]([C@H](O)[C@H](O)CO)O[C@@](Oc2c[nH]c3ccc(Br)c(Cl)c23)(C(=O)O)C[C@@H]1O [BCI-acetylneuraminic acid, 5-bromo-4-chloro-3-indolyl acetyl neuraminic acid]
- Reaction (colour, time to detection) ([8]; substrate + H2O, PMS (no MTT)): green
- Reaction (colour, time to detection) ([8]; substrate + MTT, H2O (no PMS)): light blue formazan reaction
- Reaction (colour, time to detection) ([8]; substrate + MTT, PMS): dark blue (>5 minutes)
- Reaction (colour, time to detection) ([8]; substrate in H2O (no MTT, no PMS)): pale blue (<2 minutes)

Molecule: CCCC(=O)Oc1c[nH]c2ccc(Br)c(Cl)c12 [BCI-butyrate, 5-Bromo-4-chloro-3-indolyl-butyrate]
- Substrate preference [1]: BCI-acetate>BCI-butyrate> BCI-1,3 diacetate
- Speed of chromogenic reactions relative to other BCI substrates [1]: much slower than the corresponding BCI-acetate reactions
- Reaction (colour, time to detection) [1, 12]: yellow-blue (<30 minutes)
- Reaction (colour, time to detection) [1, 13]: dark blue (<30 minutes)
- Reaction (colour, time to detection) ([1]; substrate 5 mg/ml + MTT, PMS): dark blue (<20 minutes)
- Reaction (colour, time to detection) [1, 14]: pale blue (>1 hour)
- Substrate preference ([2]; cholesterol esterase): BCI-acetate>BCI-butyrate> BCI-1,3 diacetate
- Speed of chromogenic reactions relative to other BCI substrates ([2]; cholesterol esterase, similar concentration of substrates and enzymes): much slower than the corresponding BCI-acetate reactions
- Reaction (colour, time to detection) ([2]; substrate + H2O, PMS (no MTT)): yellow-blue (<30 minutes)
- Reaction (colour, time to detection) ([2]; substrate + MTT, H2O (no PMS)): dark blue (<30 minutes)
- Reaction (colour, time to detection) ([2]; substrate + MTT, PMS): dark blue (<20 minutes)
- Reaction (colour, time to detection) [2, 18]: pale blue (>1 hour)

Molecule: O=C(N[C@H](CO)[C@H](O)c1ccc([N+](=O)[O-])cc1)C(Cl)Cl [Chloramphenicol]
- Reaction (colour, time to detection) ([9]; Acetyl CoA + H2O, PMS (no MTT)): orange - red (<2 minutes)
- Reaction (colour, time to detection) ([9]; Acetyl CoA + MTT, H2O (no PMS)): orange detection (>5 minutes)
- Reaction (colour, time to detection) ([9]; Acetyl CoA + MTT, PMS): yellow

Molecule: C[C@H](NC(=O)CCC(=O)O)C(=O)N[C@@H](C)C(=O)N[C@@H](C)C(=O)Nc1ccc([N+](=O)[O-])cc1 [Elastase substrate, N-succinyl-ALA-ALA-ALA p nitroanilide]
- Reaction with elastase, no inhibitor ([10]; Elastase + H2O, elastase substrate): yellow

Molecule: CC(C)C[C@H](NC(=O)N[C@H](C(=O)N[C@@H](CCC(N)=O)C(=O)N[C@@H](C)C=O)[C@@H]1CCNC(=N)N1)C(=O)O [Elastatinal]
- Reaction with elastase substrate after incubation with inhibitor ([10]; Elastase + Inhibitor, incubated 10 minutes, elastase substrate N-succinyl-ALA-ALA-ALA p nitroanilide): clear (no color >10 min.)
- Reaction with MTT, PMS, BCI-acetate after incubation with inhibitor ([6]; Elastase + Inhibitor, incubated 10 minutes): dark blue (<5 minutes)

Molecule: CC(C)CCC[C@@H](C)[C@H]1CC[C@H]2[C@@H]3CC=C4C[C@@H](O)CC[C@]4(C)[C@H]3CC[C@]12C [cholesterol]
- Reaction (colour, time to detection) ([11]; Cholesterol Std 50 mg/dl + H2O, PMS (no MTT)): yellow, no color change
- Reaction (colour, time to detection) ([11]; Cholesterol Std 50 mg/dl + MTT, H2O (no PMS)): yellow, no color change
- Reaction (colour, time to detection) ([11]; Cholesterol Std 50 mg/dl + MTT, PMS): dark blue(<1 minutes)
- Reaction (colour, time to detection) ([11]; Cholesterol Std 50 mg/dl in H2O (no MTT, no PMS)): clear, no color change
